Changes are numbered by the printed parent chain.
Experiments:
Format in all cases: cell-based
T877A AR = molecular target: T1, T877A AR (Homo sapiens, UniProt P10275, T878A); assay: Agonism in T877A mutant AR, AR transactivation assay in COS-1 cells, test compounds alone; conditions: 10 microM, compound alone
T1 construct: expressed in transfected cells; host or cells: COS-1
T1 sequence (P10275 1-920 T878A): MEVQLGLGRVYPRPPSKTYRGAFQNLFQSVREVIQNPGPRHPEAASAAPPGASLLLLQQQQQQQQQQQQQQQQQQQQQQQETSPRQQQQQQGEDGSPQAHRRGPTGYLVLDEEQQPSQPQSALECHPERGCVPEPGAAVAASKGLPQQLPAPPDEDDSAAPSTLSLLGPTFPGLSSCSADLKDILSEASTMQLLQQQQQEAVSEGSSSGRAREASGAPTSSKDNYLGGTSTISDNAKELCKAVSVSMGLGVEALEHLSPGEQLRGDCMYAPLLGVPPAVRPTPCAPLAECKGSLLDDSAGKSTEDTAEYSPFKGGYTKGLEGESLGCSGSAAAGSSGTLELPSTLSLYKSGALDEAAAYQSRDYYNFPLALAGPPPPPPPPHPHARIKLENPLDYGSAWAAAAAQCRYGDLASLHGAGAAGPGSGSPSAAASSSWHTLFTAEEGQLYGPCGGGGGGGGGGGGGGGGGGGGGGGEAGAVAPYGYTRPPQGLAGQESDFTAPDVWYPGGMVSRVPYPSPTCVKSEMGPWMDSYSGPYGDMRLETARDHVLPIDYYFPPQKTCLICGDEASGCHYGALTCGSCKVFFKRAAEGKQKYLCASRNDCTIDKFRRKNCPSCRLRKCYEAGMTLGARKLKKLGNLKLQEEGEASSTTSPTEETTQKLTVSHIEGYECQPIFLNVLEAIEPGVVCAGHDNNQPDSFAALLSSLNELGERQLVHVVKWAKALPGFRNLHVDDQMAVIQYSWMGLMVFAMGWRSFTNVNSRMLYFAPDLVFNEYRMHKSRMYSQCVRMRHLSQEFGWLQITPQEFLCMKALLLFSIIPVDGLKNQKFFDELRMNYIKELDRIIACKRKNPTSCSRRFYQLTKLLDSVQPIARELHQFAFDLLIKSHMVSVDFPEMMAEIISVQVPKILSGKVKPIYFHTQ
Source text: The transfected cells were exposed to test compounds alone. Testosterone was used as reference agonist, and its' relative LUC activity representing AR-dependent transcription was set to 100%.

WT AR = molecular target: T2, WT AR (Homo sapiens, UniProt P10275); assay: Antagonism in WT AR, AR transactivation reporter gene assay in COS-1 cells, competitive setting with 50 nM testosterone; conditions: 18 h
T2 construct: expressed in transfected cells; host or cells: COS-1
T2 sequence (P10275 1-920): T1 sequence (P10275 1-920 T878A) with A878T
Experimental: After 18 h, reporter gene activities (LUC and beta-galactosidase) were determined according to standard methods. The data are expressed as relative LUC activity (luciferase light units divided by beta-galactosidase A420nm to control for transfection efficiency) of a given compound in relation to the activity of a reference test item (=100%).
Antagonism in WT AR of compounds of the present invention was measured in AR transctivation assay in COS-1 cells in competitive setting using testosterone as a reference agonist as described above. […] Relative LUC activity representing AR-dependent transcription obtained by exposure to testosterone alone was set to 100%.

W741L AR = molecular target: T3, W741L AR (Homo sapiens, UniProt P10275, W742L); assay: Agonism in W741L mutant AR, AR transactivation assay in COS-1 cells, test compounds alone; conditions: 10 microM, compound alone
T3 construct: expressed in transfected cells; host or cells: COS-1
T3 sequence (P10275 1-920 W742L): T1 sequence (P10275 1-920 T878A) with W742L, A878T
Experimental: COS-1 (American Type Culture Collection) were cultured in DMEM supplemented with 10% FBS, penicillin (6.25 U/ml) and streptomycin (6.25 μg/ml) and seeded onto 48-well plates (50 000 cells/well) one day before transfection. Transfection media containing 2.5% charcoal-stripped FBS in DMEM was changed on cells 4 h prior to transfection. Cells were transfected with 50 ng of reporter gene plasmid (pPB-286/+32-LUC; PB, probasin promoter), 5 ng of AR expression plasmid (pSG5-hAR), and 5 ng of pCMVβ (an internal, beta-galactosidase control for transfection efficiency and cell growth) using TranslT-LT1 reagent (Mirus Bio Corporation) according to the manufacturer's instructions. […] After 18 h, reporter gene activities (LUC and beta-galactosidase) were determined according to standard methods. The data are expressed as relative LUC activity (luciferase light units divided by beta-galactosidase A420nm to control for transfection efficiency) of a given compound in relation to the activity of a reference test item (=100%).
Agonism in W741L AR of compounds of the present invention was measured in AR transactivation assay in COS-1 cells as described above except that AR expression vector harboring the W741L mutation was used instead of the WT AR. The transfected cells were exposed to test compounds alone.

N#Cc1ccc(NC(=O)C(O)(CS(=O)(=O)c2ccc(F)c(F)c2)c2ccc(C(F)(F)F)cc2)cc1Cl (centres unmarked) [Example 10, N-(3-chloro-4-cyanophenyl)-3-[(3,4-difluorobenzene)sulfonyl]-2-hydroxy-2-[4-(trifluoromethyl)phenyl]propanamide]
Relative LUC activity (%) in T877A AR in relation to testosterone (100%) (T877A AR): 1% | Relative LUC activity (%) indicating residual androgen activity in relation to testosterone (100%) (WT AR; 1 microM compound): 23% | Relative LUC activity (%) indicating residual androgen activity in relation to testosterone (100%) (WT AR; 10 microM compound): 6% | Relative LUC activity (%) in W741L AR in relation to BIC (100%) (W741L AR): 3%

COc1ccc(C(O)(CS(=O)(=O)Cc2ccc(F)cc2)C(=O)Nc2ccc(C#N)c(Cl)c2)cc1F (centres unmarked) [Example 32, N-(3-chloro-4-cyanophenyl)-2-(3-fluoro-4-methoxyphenyl)-3-{[(4-fluorophenyl)methane]sulfonyl}-2-hydroxypropanamide]
Relative LUC activity (%) in T877A AR in relation to testosterone (100%) (T877A AR): 2% | Relative LUC activity (%) indicating residual androgen activity in relation to testosterone (100%) (WT AR; 1 microM compound): 24% | Relative LUC activity (%) indicating residual androgen activity in relation to testosterone (100%) (WT AR; 10 microM compound): 2% | Relative LUC activity (%) in W741L AR in relation to BIC (100%) (W741L AR): 3%

N#Cc1ccc(S(=O)(=O)CC(O)(C(=O)Nc2ccc([N+](=O)[O-])c(Cl)c2)c2ccc(C(F)(F)F)cc2)cc1F (centres unmarked) [Example 19, N-(3-chloro-4-nitrophenyl)-3-[(4-cyano,3-fluorobenzene)sulfonyl]-2-hydroxy-2-[4-(trifluoromethyl)phenyl]propanamide]
Relative LUC activity (%) in T877A AR in relation to testosterone (100%) (T877A AR): 2% | Relative LUC activity (%) indicating residual androgen activity in relation to testosterone (100%) (WT AR; 1 microM compound): 11% | Relative LUC activity (%) indicating residual androgen activity in relation to testosterone (100%) (WT AR; 10 microM compound): 1% | Relative LUC activity (%) in W741L AR in relation to BIC (100%) (W741L AR): 9%

N#Cc1ccc(NC(=O)C(O)(CS(=O)(=O)c2ccc(F)cc2)c2ccc(C(F)(F)F)cc2)cc1C(F)(F)F (centres unmarked) [Example 21, N-(4-cyano-3-(trifluoromethyl)phenyl)-3-[(4-fluorobenzene)sulfonyl]-2-hydroxy-2-[4-(trifluoromethyl)phenyl]propanamide]
Relative LUC activity (%) in T877A AR in relation to testosterone (100%) (T877A AR): 4% | Relative LUC activity (%) indicating residual androgen activity in relation to testosterone (100%) (WT AR; 1 microM compound): 24% | Relative LUC activity (%) indicating residual androgen activity in relation to testosterone (100%) (WT AR; 10 microM compound): 1% | Relative LUC activity (%) in W741L AR in relation to BIC (100%) (W741L AR): 3%

N#Cc1ccc(NC(=O)C(O)(CS(=O)(=O)Cc2ccc(F)cc2)c2cccc(C(F)(F)F)c2)cc1Cl (centres unmarked) [Example 40, N-(3-chloro-4-cyanophenyl)-3-{[(4-fluorophenyl)methane]sulfonyl}-2-hydroxy-2-[3-(trifluoromethyl)phenyl]propanamide]
Relative LUC activity (%) in T877A AR in relation to testosterone (100%) (T877A AR): 1% | Relative LUC activity (%) indicating residual androgen activity in relation to testosterone (100%) (WT AR; 1 microM compound): 22% | Relative LUC activity (%) indicating residual androgen activity in relation to testosterone (100%) (WT AR; 10 microM compound): 2% | Relative LUC activity (%) in W741L AR in relation to BIC (100%) (W741L AR): 2%

CCS(=O)(=O)CC(O)(C(=O)Nc1ccc(C#N)c(Cl)c1)c1ccc(OC)c(F)c1 (centres unmarked) [Example 25, N-(3-chloro-4-cyanophenyl)-2-((3-fluoro-4-methoxy)phenyl)-3-(ethanesulfonyl)-2-hydroxypropanamide]
Relative LUC activity (%) in T877A AR in relation to testosterone (100%) (T877A AR): 9% | Relative LUC activity (%) indicating residual androgen activity in relation to testosterone (100%) (WT AR; 1 microM compound): 22% | Relative LUC activity (%) indicating residual androgen activity in relation to testosterone (100%) (WT AR; 10 microM compound): 6% | Relative LUC activity (%) in W741L AR in relation to BIC (100%) (W741L AR): 9%

N#Cc1ccc(NC(=O)C(O)(CS(=O)(=O)Cc2ccc(Cl)cc2)c2ccc(Cl)cc2)cc1Cl (centres unmarked) [Example 27, N-[3-chloro-4-cyanophenyl]-3-{[(4-chlorophenyl)methane]sulfonyl}-2-hydroxy-2-[4-(chloro)phenyl]propanamide]
Relative LUC activity (%) in T877A AR in relation to testosterone (100%) (T877A AR): 1% | Relative LUC activity (%) indicating residual androgen activity in relation to testosterone (100%) (WT AR; 1 microM compound): 14% | Relative LUC activity (%) indicating residual androgen activity in relation to testosterone (100%) (WT AR; 10 microM compound): 1% | Relative LUC activity (%) in W741L AR in relation to BIC (100%) (W741L AR): 6%

N#Cc1ccc(NC(=O)C(O)(CS(=O)(=O)c2ccc(F)cc2)c2ccc(C(F)(F)F)cc2)cc1Cl (centres unmarked) [Example 4, N-(3-chloro-4-cyanophenyl)-3-[(4-fluorobenzene)sulfonyl]-2-hydroxy-2-[4-(trifluoromethyl)phenyl]propanamide]
Relative LUC activity (%) in T877A AR in relation to testosterone (100%) (T877A AR): 1% | Relative LUC activity (%) indicating residual androgen activity in relation to testosterone (100%) (WT AR; 1 microM compound): 21% | Relative LUC activity (%) indicating residual androgen activity in relation to testosterone (100%) (WT AR; 10 microM compound): 1% | Relative LUC activity (%) in W741L AR in relation to BIC (100%) (W741L AR): 8%

From US8816119B2, “Arylamide derivatives having antiandrogenic properties” (Medeia Therapeutics Ltd, priority 2010, dated 2014)
